System: bipolaris sorokininan
Assay: Seed treatment: disease prevention and yield keeping on wheat
Assay type: in vivo
Settings: treated seeds
Description: Seeds treaed with FA whose weight amount to 0.2% seed by weight have disease prevention effect for bipolaris sorokininan and yield keeping effect. After the seeds were treated, the wheat developed well and occurrence of powdery mildew was less compared to blank. Yield keeping effect of mixture of FAn and triazolone was improved from 7.79% of single use of triazolone to 10.67%.

## CC(C)(C)C(=O)C(Oc1ccc(Cl)cc1)n1cncn1 (stereo not shown) [triazolone]
  yield keeping effect (%): 7.79%

Reference: patent US20050220834A1 (priority 2004, published 2005)
